Experimental findings from the SangsterLogP compilation are described below.

The logD is the decadic logarithm of the distribution of all forms, ionised or not, between an organic phase and buffer at a given pH.

SMILES strings stand for the structures.

This data set in a line: method code SF-AS, from DOI: 10.1111/j.1399-3011.1986.tb03252.x. Particulars: pH 7.0.

`CC(=O)NC(C)C(N)=O` (stereo not drawn) gave a pH-dependent lipophilicity (logD) of -1.41.
`C=CCC(NC(C)=O)C(N)=O` (stereo not drawn) came in with a logD of -0.86.
Under `C=CCC(CC=C)(NC(C)=O)C(N)=O` stands 0.05; under `CCCC(NC(C)=O)C(N)=O` (stereo not drawn), -0.45; under `CC(=O)NC(C)(C)C(N)=O`, -0.87.
Then `CC(=O)NC(Cc1ccccc1)(Cc1ccccc1)C(N)=O`, with 2.09; and `CC(=O)NCC(N)=O`, with -1.68; and `CCCC(CCC)(NC(C)=O)C(N)=O`, with 0.75.
